The subject of assay [1] is Rattus norvegicus. Description: Anti-inflammatory activity against formalin-induced foot paw edema in PO dosed rat at 10 mg/kg assessed as inhibition of edema measured after 4 hr relative to control. In kind it is functional.
In assay [2] the test system is Rattus norvegicus. Description: Anti-inflammatory activity against Carrageenan-induced paw edema in PO dosed Wistar albino rat assessed as inhibition of edema measured after 3 hr relative to control. The format is functional. Also on record: scale not given: the % may be the effect or the level left. On the technique in general: Carrageenan injected into the paw causes an acute inflammation.

A short description of assay [3]: Anti-inflammatory activity assessed using bovine serum albumin/egg albumin proteins assessed as protein denaturation measured at 95 degC for 20 mins by measuring turbidity by UV-Vis spectrophotometer. In kind it is functional.
The subject of assay [4] is Erythrocyte. Description: Anti-inflammatory activity in human red blood cells assessed as stabilization of cell membrane. The format is functional, cell-based.
The subject of assay [5] is Rattus norvegicus. Kind of assay: Anti-inflammatory activity in Carrageenan-induced rat paw edema in Wistar rat assessed as reduction in inhibition of edema measured after 4 hrs relative to control. In kind it is functional. More on the design: scale not given: the % may be the effect or the level left.
The subject of assay [6] is Rattus norvegicus. Kind of assay: Anti-inflammatory activity in Carrageenan-induced paw edema in PO dosed rat model at 30 mg/kg measured after 4 hrs relative to control. In kind it is functional.
Assay [7] deals with Mus musculus. Description: Anti-inflammatory activity against Carrageenan-induced paw edema in mouse model assessed as reduction of edema at 50 mg/kg measured after 4 hrs relative to control. In kind it is functional. More on the design: scale not given: the % may be the effect or the level left.
In assay [8] the test system is THP-1. Description: Anti-inflammatory activity in human THP-1 cells assessed as inhibition in IL-1beta release at 30 uM relative to control. In kind it is functional. More on the design: scale not given: the % may be the effect or the level left.
In assay [9] the test system is Rattus norvegicus. Description: Anti-inflammatory activity in Carrageenan-induced paw edema in Wistar albino rat assessed as inhibition of paw edema measured after 1 hr relative to control. The format is functional.
Assay [10] deals with Rattus norvegicus. Description: Anti-inflammatory activity in Carrageenan-induced paw edema in Wistar albino rat assessed as inhibition of paw edema measured after 3 hr relative to control. In kind it is functional. Also on record: Activity: scale not given: the % may be the effect or the level left.
Assay [11] has as its target T1, Prostaglandin G/H synthase 2 (Homo sapiens, UniProt P35354).
T1 sequence (P35354 whole entry): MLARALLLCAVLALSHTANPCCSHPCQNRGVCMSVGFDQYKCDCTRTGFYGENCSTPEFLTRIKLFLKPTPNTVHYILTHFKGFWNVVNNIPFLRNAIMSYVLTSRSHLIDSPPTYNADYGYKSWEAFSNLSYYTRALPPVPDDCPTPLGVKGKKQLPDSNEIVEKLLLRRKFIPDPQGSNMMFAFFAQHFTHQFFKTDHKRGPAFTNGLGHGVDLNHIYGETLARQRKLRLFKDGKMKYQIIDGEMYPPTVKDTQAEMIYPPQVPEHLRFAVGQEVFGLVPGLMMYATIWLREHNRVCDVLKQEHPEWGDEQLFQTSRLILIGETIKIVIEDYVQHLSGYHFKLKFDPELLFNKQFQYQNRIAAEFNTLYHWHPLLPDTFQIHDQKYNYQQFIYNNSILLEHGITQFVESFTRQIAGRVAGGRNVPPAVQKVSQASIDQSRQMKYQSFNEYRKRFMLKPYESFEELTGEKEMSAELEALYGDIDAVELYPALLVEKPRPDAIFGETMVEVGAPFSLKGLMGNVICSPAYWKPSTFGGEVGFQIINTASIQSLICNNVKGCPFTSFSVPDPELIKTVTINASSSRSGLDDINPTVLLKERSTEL
Description: Inhibition of COX-2 (unknown origin) at 0.1 uM.

Assay [12] concerns Rattus norvegicus. Description: Anti-inflammatory activity in Carrageenan-induced paw edema in Wistar albino rat assessed as inhibition of paw edema measured after 6 hr relative to control. The format is functional.
Assay [13] concerns RAW264.7. Description: Anti-inflammatory activity in mouse RAW264.7 cells assessed as decreased production of LPS-induced TNFalpha production. The format is functional. The conditions noted are these: read-out: ED50 (the source's name).
Assay [14] concerns RAW264.7. Description: Anti-inflammatory activity in mouse RAW264.7 cells assessed as decreased production of LPS-induced IL-6 production. In kind it is functional.
For assay [15], the system named is RAW264.7. Description: Anti-inflammatory activity in mouse RAW264.7 cells assessed as decreased production of LPS-induced IL-1beta production. In kind it is functional.
In assay [16] the target is T2, Prostaglandin G/H synthase 1 (Ovis aries, UniProt P05979).
T2 sequence (P05979 whole entry): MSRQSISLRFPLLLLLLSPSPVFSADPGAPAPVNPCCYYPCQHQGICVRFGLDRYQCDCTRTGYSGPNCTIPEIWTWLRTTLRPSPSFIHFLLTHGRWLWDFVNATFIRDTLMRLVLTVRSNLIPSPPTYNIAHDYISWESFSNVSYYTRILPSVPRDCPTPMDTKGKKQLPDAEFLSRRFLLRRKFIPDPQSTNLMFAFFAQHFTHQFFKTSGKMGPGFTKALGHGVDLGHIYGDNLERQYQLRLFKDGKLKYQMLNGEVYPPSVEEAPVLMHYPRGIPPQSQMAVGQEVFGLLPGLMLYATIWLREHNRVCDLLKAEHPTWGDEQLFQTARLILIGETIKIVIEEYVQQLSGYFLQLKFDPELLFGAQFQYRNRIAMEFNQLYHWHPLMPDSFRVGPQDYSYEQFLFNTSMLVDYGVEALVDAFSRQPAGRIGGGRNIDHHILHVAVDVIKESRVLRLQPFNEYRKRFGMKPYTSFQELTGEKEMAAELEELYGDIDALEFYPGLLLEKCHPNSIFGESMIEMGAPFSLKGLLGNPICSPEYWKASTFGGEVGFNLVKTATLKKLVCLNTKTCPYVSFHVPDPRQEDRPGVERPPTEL
Description: Inhibition of ovine COX-1 by EIA method.

In assay [17] the test system is RAW264.7. Kind of assay: Anti-inflammatory activity in mouse RAW264.7 cells assessed as LPS-induced reduction in decreased […] level of IL-1beta measured after 24 hrs. The format is functional.
For assay [18], the target named is T3, Polyunsaturated fatty acid 5-lipoxygenase (Homo sapiens, UniProt P09917).
T3 sequence (P09917 whole entry): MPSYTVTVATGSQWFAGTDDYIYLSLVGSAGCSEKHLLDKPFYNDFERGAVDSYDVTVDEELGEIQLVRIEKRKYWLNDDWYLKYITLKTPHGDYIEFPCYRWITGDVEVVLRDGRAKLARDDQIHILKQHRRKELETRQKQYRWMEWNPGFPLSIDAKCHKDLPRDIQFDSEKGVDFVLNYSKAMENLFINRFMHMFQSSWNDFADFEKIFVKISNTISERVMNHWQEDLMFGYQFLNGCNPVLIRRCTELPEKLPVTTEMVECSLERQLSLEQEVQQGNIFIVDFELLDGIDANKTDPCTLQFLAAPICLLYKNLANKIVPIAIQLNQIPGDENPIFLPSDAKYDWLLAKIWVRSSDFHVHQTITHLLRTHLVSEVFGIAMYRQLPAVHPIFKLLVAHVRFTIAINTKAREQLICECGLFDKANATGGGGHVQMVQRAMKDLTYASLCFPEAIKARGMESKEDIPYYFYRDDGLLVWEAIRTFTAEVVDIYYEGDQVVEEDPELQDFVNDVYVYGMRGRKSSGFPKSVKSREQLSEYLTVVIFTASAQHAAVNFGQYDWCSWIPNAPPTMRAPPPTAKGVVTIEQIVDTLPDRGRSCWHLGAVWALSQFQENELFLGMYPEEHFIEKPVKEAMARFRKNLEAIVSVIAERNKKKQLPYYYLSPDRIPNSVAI
Description: Inhibition of 5-LOX (unknown origin) after 5 mins by colorimetric method.

Assay [19] addresses T4, Polyunsaturated fatty acid lipoxygenase ALOX15 (Homo sapiens, UniProt P16050).
T4 sequence (P16050 whole entry): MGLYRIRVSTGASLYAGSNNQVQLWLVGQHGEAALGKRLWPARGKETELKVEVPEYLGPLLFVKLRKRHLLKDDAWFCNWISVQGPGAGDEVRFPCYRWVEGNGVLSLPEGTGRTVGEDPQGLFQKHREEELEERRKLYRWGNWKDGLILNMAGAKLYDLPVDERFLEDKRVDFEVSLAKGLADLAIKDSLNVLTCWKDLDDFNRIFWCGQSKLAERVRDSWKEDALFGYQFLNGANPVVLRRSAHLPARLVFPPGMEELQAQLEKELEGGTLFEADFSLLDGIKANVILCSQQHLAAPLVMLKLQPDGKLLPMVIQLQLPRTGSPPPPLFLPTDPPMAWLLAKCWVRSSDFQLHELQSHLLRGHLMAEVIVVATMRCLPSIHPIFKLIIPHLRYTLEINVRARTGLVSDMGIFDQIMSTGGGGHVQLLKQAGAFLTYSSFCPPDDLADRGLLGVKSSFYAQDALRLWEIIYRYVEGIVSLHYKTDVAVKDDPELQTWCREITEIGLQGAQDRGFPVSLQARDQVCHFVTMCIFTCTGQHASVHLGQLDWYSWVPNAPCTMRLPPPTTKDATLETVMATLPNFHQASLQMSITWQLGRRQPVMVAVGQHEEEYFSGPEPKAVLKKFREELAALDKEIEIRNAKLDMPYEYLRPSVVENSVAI
Description: Inhibition of 15-LOX (unknown origin).

Assay [20] has as its system Rattus norvegicus. Description: Anti-inflammatory activity in Carageenan-induced paw edema Wistar rat model assessed as reduction in paw edema volume relative to control. In kind it is functional. More on the design: scale not given: the % may be the effect or the level left.

The text below walks through data of ChEMBL document CHEMBL5233249, “Recent advancements in the development of heterocyclic anti-inflammatory agents” (Eur J Med Chem, 2020).

Converted amounts (≈) assume the structure as drawn.

One may read the inhibition in vivo as the share of the control response that was lost under treatment. Broadly, the IC50 is the concentration that gives 50% inhibition.

For the molecule `O=C([O-])Cc1ccccc1Nc1c(Cl)cccc1Cl.[Na+]` [DICLOFENAC SODIUM], the inhibition in vivo at 10 mg/kg in assay [1] stood at 92.9%. The values for the Activity in [2], in [5] and in assay [7] were 60.82%, 78.05% and 76.25%, respectively. Further, the half-inhibitory concentration (IC50) in [3] stood at 54.65 µg/mL. Further, the EC50 in assay [4] was 11.7 µg/mL. In assay [6], this molecule gave an inhibition in vivo at 30 mg/kg of 93%.
Regarding `c1cc2[nH]c(-c3cscn3)nc2cn1`, the Activity in [8] came out at 40%.
With `COc1ccc(C2=NNC(S)C2N(CN2C(=O)/C(=C\c3nnc(-c4ccc(-c5ccc(OC)cc5)cc4)s3)c3ccccc32)C(=O)c2ccccc2)cc1` (configuration not stated), the “inhibition (INH)” value is 50% in assay [9], 52.63% in assay [10] and 57.14% in [12]. This molecule also gave an IC50 in assay [11] of 53.1 µM. For the same molecule, in assay [13], the EC50 was 0.0559 µg/mL (≈ 0.0744 µM). Besides, the Activity in assay [14] was determined as 102.1 ng/mL; in assay [15], 35.1 ng/mL.
For the molecule `COc1c2occc2c(OC)c2c(C)c(/C(=N/c3cc(N4CCNCC4)nc(N4CCNCC4)n3)N3CCNCC3)oc12`, in assay [16], half-maximal inhibition (IC50) required 4.15 µM. The Activity in assay [10] is 68%; in assay [17] it was 30 pg/mL.
In the case of `O=C1c2ccccc2C(=O)N1c1nc2cc([N+](=O)[O-])ccc2n1Cc1ccc(-c2ccccc2)cc1`, the results for the IC50 in [18], in assay [16] and in assay [19] were 0.32 µM, 9.85 µM and 1.02 µM, respectively. The Activity in assay [20] came out at 81.88%.
